In patent USRE42890E1, “Furazanobenzimidazoles” (Basilea Pharmaceutica AG, priority 2003, dated 2011):

Test system: Jurkat
Assay: MTS proliferation assay, Jurkat
Format: cell-based, human
Details: 72 h incubation, read-out: MTS proliferation assay IC 50 Jurkat
Method in brief: (§1)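 Proliferation: RPMI-1640/FCS complete medium, 37 °C, 7.5% CO2, cells plated 24 h pre-dose; compounds at 10, 3, 1, 0.3 μM final for 72 h; MTS, 492 nm.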

Compound	IC50 [nM]
N#Cc1ccc(C(=O)Cn2c(-c3nonc3N)nc3ccccc32)cc1 [Example 63]	> 1000
Cc1cc2nc(-c3nonc3N)n(CC(=O)c3ccc(-c4ccccc4)cc3)c2cc1C [Example 112]	> 1000
COc1ccc(C(=O)Cn2c(-c3nonc3N)nc3cc(C)c(C)cc32)cc1 [Example 111]	> 1000

Test system: HT1080
Assay: MTS proliferation assay, HT1080
Format: cell-based, human
Details: HT1080, 72 h incubation; read-out: MTS proliferation assay IC 50 HT1080
Method: Cell lines are cultured in RPMI-1640 tissue culture medium containing either 5% or 10% fetal calf serum, 0.05 mM 2-mercaptoethanol, 2 mM glutamine and penicillin/streptomycin 50 μg/ml (complete medium) (Sigma, Buchs, Switzerland). General growth conditions are 37° C. and 7.5% CO2.
The following human cell lines (either EGFP transfected or not) are being used: HeLa (ATCC: CCL-2), KB (ATCC: CCL-17), MCF7 (ATCC: HTB-22), SK-BR-3 (ATCC: HTB-30), SK-Mel 1 (ATCC: HTB-67), SK-Mel 28 (ATCC: HTB-72), PC-3 (ATCC: CRL-1435), SW 480 (ATCC: CCL-228), NCl-H460 (ATCC: HTB-177), NCl-H1792 (ATCC: CRL-5895), HT1080 (ATCC: CCL-21), Jurkat (ATCC: TIB-152), Ramos (ATCC: CRL-1596), Raji (ATCC: CCL-86), H9 (ATCC: HTB-176), Hut78 (ATCC: TIB-161), K562 (ATCC: CCL 243), HL-60 (ATCC: CCL 240), U-87MG (ATCC: HTB-14), HepG2 (ATCC: HB-8065), U-2 OS (ATCC: HTB-96), Saos-2 (ATCC: HTB-85), U937 (ATCC: CRL 1593), Hs 578T (ATCC: HTB 126), HBL-100 (ATCC: HTB 124), Molt-4 (ATCC: CRL 1582).
The assay is performed in 96 well tissue culture plates. The cells (range: 1.5*10^3-10^4) are seeded out in 80 μl complete medium 24 h prior to compound treatment. The test compounds are added in 20 μl complete medium containing max 5% DMSO. The final compound concentrations in the assays are 10 μM, 3 μM, 1 μM and 0.3 μM, respectively. The assay plates are incubated for 72 h at culture conditions. The MTS reagent is prepared according to the manufacturer's protocol (Promega G1111). 20 μl MTS reagent are added to each well, the assay plates are quickly spun and incubated for another 3 h at culture conditions. Subsequently, the plates are shortly shaked and absorption measured with a microplate-reader at 492 nm.

Compound	IC50 [nM]
N#Cc1ccc(C(=O)Cn2c(-c3nonc3N)nc3ccccc32)cc1 [Example 63]	> 1000
Cc1cc2nc(-c3nonc3N)n(CC(=O)c3ccc(-c4ccccc4)cc3)c2cc1C [Example 112]	> 1000
COc1ccc(C(=O)Cn2c(-c3nonc3N)nc3cc(C)c(C)cc32)cc1 [Example 111]	> 1000

Test system: HeLa
Assay: MTS proliferation assay, HeLa
Format: cell-based, human
Details: 72 h incubation, read-out: MTS proliferation assay IC 50 HeLa
Method in brief: as §1

Compound	IC50 [nM]
N#Cc1ccc(C(=O)Cn2c(-c3nonc3N)nc3ccccc32)cc1 [Example 63]	> 1000
Cc1cc2nc(-c3nonc3N)n(CC(=O)c3ccc(-c4ccccc4)cc3)c2cc1C [Example 112]	> 1000
COc1ccc(C(=O)Cn2c(-c3nonc3N)nc3cc(C)c(C)cc32)cc1 [Example 111]	> 1000

Test system: MRC5
Assay: MTS proliferation assay, MRC5
Format: cell-based
Details: MRC5, 72 h incubation; read-out: MTS proliferation assay IC 50 MRC5
Method in brief: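 Viability after 72 h compound exposure at 10, 3, 1 and 0.3 μM final was scored by MTS absorbance (492 nm, 3 h reagent incubation), with cells kept in RPMI-1640 containing 5% or 10% fetal calf serum.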

Compound	IC50 [nM]
N#Cc1ccc(C(=O)Cn2c(-c3nonc3N)nc3ccccc32)cc1 [Example 63]	> 1000
Cc1cc2nc(-c3nonc3N)n(CC(=O)c3ccc(-c4ccccc4)cc3)c2cc1C [Example 112]	> 1000
COc1ccc(C(=O)Cn2c(-c3nonc3N)nc3cc(C)c(C)cc32)cc1 [Example 111]	> 1000

Test system: adherent cells or suspension cells
Assay: Hoechst 33342 nuclear staining (fraction of apoptotic nuclei)
Format: cell-based
Set-up: key: 0 relating to no activity; 1 relating to weak activity comprising less than 70% of the cells; score 2 relating to strong activity comprising more than 70% of the cells
Details: H460, conc 0.01 μm

Compound	Hoechst 33342 nuclear staining score
N#Cc1ccc(C(=O)Cn2c(-c3nonc3N)nc3ccccc32)cc1 [Example 63]	0
Cc1cc2nc(-c3nonc3N)n(CC(=O)c3ccc(-c4ccccc4)cc3)c2cc1C [Example 112]	0
COc1ccc(C(=O)Cn2c(-c3nonc3N)nc3cc(C)c(C)cc32)cc1 [Example 111]	0

Same assay, conditions: H460, conc 0.1 μm

Compound	Hoechst 33342 nuclear staining score
N#Cc1ccc(C(=O)Cn2c(-c3nonc3N)nc3ccccc32)cc1 [Example 63]	0
Cc1cc2nc(-c3nonc3N)n(CC(=O)c3ccc(-c4ccccc4)cc3)c2cc1C [Example 112]	0
COc1ccc(C(=O)Cn2c(-c3nonc3N)nc3cc(C)c(C)cc32)cc1 [Example 111]	0

Same assay, conditions: H460, conc 1 μm

Compound	Hoechst 33342 nuclear staining score
N#Cc1ccc(C(=O)Cn2c(-c3nonc3N)nc3ccccc32)cc1 [Example 63]	0
Cc1cc2nc(-c3nonc3N)n(CC(=O)c3ccc(-c4ccccc4)cc3)c2cc1C [Example 112]	0
COc1ccc(C(=O)Cn2c(-c3nonc3N)nc3cc(C)c(C)cc32)cc1 [Example 111]	0

Same assay, conditions: HeLa, conc 0.01 μm

Compound	Hoechst 33342 nuclear staining score
N#Cc1ccc(C(=O)Cn2c(-c3nonc3N)nc3ccccc32)cc1 [Example 63]	0
Cc1cc2nc(-c3nonc3N)n(CC(=O)c3ccc(-c4ccccc4)cc3)c2cc1C [Example 112]	0
COc1ccc(C(=O)Cn2c(-c3nonc3N)nc3cc(C)c(C)cc32)cc1 [Example 111]	0

Same assay, conditions: HeLa, conc 0.1 μm

Compound	Hoechst 33342 nuclear staining score
N#Cc1ccc(C(=O)Cn2c(-c3nonc3N)nc3ccccc32)cc1 [Example 63]	0
Cc1cc2nc(-c3nonc3N)n(CC(=O)c3ccc(-c4ccccc4)cc3)c2cc1C [Example 112]	0
COc1ccc(C(=O)Cn2c(-c3nonc3N)nc3cc(C)c(C)cc32)cc1 [Example 111]	0

Same assay, conditions: HeLa, conc 1 μm

Compound	Hoechst 33342 nuclear staining score
N#Cc1ccc(C(=O)Cn2c(-c3nonc3N)nc3ccccc32)cc1 [Example 63]	0
Cc1cc2nc(-c3nonc3N)n(CC(=O)c3ccc(-c4ccccc4)cc3)c2cc1C [Example 112]	0
COc1ccc(C(=O)Cn2c(-c3nonc3N)nc3cc(C)c(C)cc32)cc1 [Example 111]	0

Same assay, conditions: Jily, conc 0.01 μm

Compound	Hoechst 33342 nuclear staining score
N#Cc1ccc(C(=O)Cn2c(-c3nonc3N)nc3ccccc32)cc1 [Example 63]	0
Cc1cc2nc(-c3nonc3N)n(CC(=O)c3ccc(-c4ccccc4)cc3)c2cc1C [Example 112]	0
COc1ccc(C(=O)Cn2c(-c3nonc3N)nc3cc(C)c(C)cc32)cc1 [Example 111]	0

Same assay, conditions: Jily, conc 0.1 μm

Compound	Hoechst 33342 nuclear staining score
N#Cc1ccc(C(=O)Cn2c(-c3nonc3N)nc3ccccc32)cc1 [Example 63]	0
Cc1cc2nc(-c3nonc3N)n(CC(=O)c3ccc(-c4ccccc4)cc3)c2cc1C [Example 112]	0
COc1ccc(C(=O)Cn2c(-c3nonc3N)nc3cc(C)c(C)cc32)cc1 [Example 111]	0

Same assay, conditions: Jily, conc 1 μm

Compound	Hoechst 33342 nuclear staining score
N#Cc1ccc(C(=O)Cn2c(-c3nonc3N)nc3ccccc32)cc1 [Example 63]	0
Cc1cc2nc(-c3nonc3N)n(CC(=O)c3ccc(-c4ccccc4)cc3)c2cc1C [Example 112]	0
COc1ccc(C(=O)Cn2c(-c3nonc3N)nc3cc(C)c(C)cc32)cc1 [Example 111]	0

Same assay, conditions: Jurkat, conc 0.01 μm

Compound	Hoechst 33342 nuclear staining score
N#Cc1ccc(C(=O)Cn2c(-c3nonc3N)nc3ccccc32)cc1 [Example 63]	0
Cc1cc2nc(-c3nonc3N)n(CC(=O)c3ccc(-c4ccccc4)cc3)c2cc1C [Example 112]	0
COc1ccc(C(=O)Cn2c(-c3nonc3N)nc3cc(C)c(C)cc32)cc1 [Example 111]	0

Same assay, conditions: Jurkat, conc 0.1 μm

Compound	Hoechst 33342 nuclear staining score
N#Cc1ccc(C(=O)Cn2c(-c3nonc3N)nc3ccccc32)cc1 [Example 63]	0
Cc1cc2nc(-c3nonc3N)n(CC(=O)c3ccc(-c4ccccc4)cc3)c2cc1C [Example 112]	0
COc1ccc(C(=O)Cn2c(-c3nonc3N)nc3cc(C)c(C)cc32)cc1 [Example 111]	0

Same assay, conditions: Jurkat, conc 1 μm

Compound	Hoechst 33342 nuclear staining score
N#Cc1ccc(C(=O)Cn2c(-c3nonc3N)nc3ccccc32)cc1 [Example 63]	0
Cc1cc2nc(-c3nonc3N)n(CC(=O)c3ccc(-c4ccccc4)cc3)c2cc1C [Example 112]	0
COc1ccc(C(=O)Cn2c(-c3nonc3N)nc3cc(C)c(C)cc32)cc1 [Example 111]	0

Same assay, conditions: MRC5, conc 0.01 μm

Compound	Hoechst 33342 nuclear staining score
N#Cc1ccc(C(=O)Cn2c(-c3nonc3N)nc3ccccc32)cc1 [Example 63]	0
Cc1cc2nc(-c3nonc3N)n(CC(=O)c3ccc(-c4ccccc4)cc3)c2cc1C [Example 112]	0
COc1ccc(C(=O)Cn2c(-c3nonc3N)nc3cc(C)c(C)cc32)cc1 [Example 111]	0

Same assay, conditions: MRC5, conc 0.1 μm

Compound	Hoechst 33342 nuclear staining score
N#Cc1ccc(C(=O)Cn2c(-c3nonc3N)nc3ccccc32)cc1 [Example 63]	0
Cc1cc2nc(-c3nonc3N)n(CC(=O)c3ccc(-c4ccccc4)cc3)c2cc1C [Example 112]	0
COc1ccc(C(=O)Cn2c(-c3nonc3N)nc3cc(C)c(C)cc32)cc1 [Example 111]	0

Same assay, conditions: MRC5, conc 1 μm

Compound	Hoechst 33342 nuclear staining score
N#Cc1ccc(C(=O)Cn2c(-c3nonc3N)nc3ccccc32)cc1 [Example 63]	0
Cc1cc2nc(-c3nonc3N)n(CC(=O)c3ccc(-c4ccccc4)cc3)c2cc1C [Example 112]	0
COc1ccc(C(=O)Cn2c(-c3nonc3N)nc3cc(C)c(C)cc32)cc1 [Example 111]	0

Same assay, conditions: PBLs, conc 0.01 μm

Compound	Hoechst 33342 nuclear staining score
N#Cc1ccc(C(=O)Cn2c(-c3nonc3N)nc3ccccc32)cc1 [Example 63]	0
Cc1cc2nc(-c3nonc3N)n(CC(=O)c3ccc(-c4ccccc4)cc3)c2cc1C [Example 112]	0
COc1ccc(C(=O)Cn2c(-c3nonc3N)nc3cc(C)c(C)cc32)cc1 [Example 111]	0

Same assay, conditions: PBLs, conc 0.1 μm

Compound	Hoechst 33342 nuclear staining score
N#Cc1ccc(C(=O)Cn2c(-c3nonc3N)nc3ccccc32)cc1 [Example 63]	0
Cc1cc2nc(-c3nonc3N)n(CC(=O)c3ccc(-c4ccccc4)cc3)c2cc1C [Example 112]	0
COc1ccc(C(=O)Cn2c(-c3nonc3N)nc3cc(C)c(C)cc32)cc1 [Example 111]	0

Same assay, conditions: PBLs, conc 1 μm

Compound	Hoechst 33342 nuclear staining score
N#Cc1ccc(C(=O)Cn2c(-c3nonc3N)nc3ccccc32)cc1 [Example 63]	0
Cc1cc2nc(-c3nonc3N)n(CC(=O)c3ccc(-c4ccccc4)cc3)c2cc1C [Example 112]	0
COc1ccc(C(=O)Cn2c(-c3nonc3N)nc3cc(C)c(C)cc32)cc1 [Example 111]	0
